Earlier results, collected in patent US5304296A, “Glass pH electrodes” (National Power PLC, priority 1990, dated 1994).

Structure (SMILES): NC(=O)CN(CC(=O)O)CC(=O)O [ADA, N-(2-acetamido)iminodiacetic acid]
- pKa at 20° C.: 6.62
